Source: paper PMC12040169 (PLOS Biology, 2025)

Test: in vitro
Conditions: human, hela cells, % viability

Structure (SMILES) | viability at 28.5 h, 10 µM
Cc1noc(C)c1NC(=O)c1nc2ccccc2[nH]1 [CBK200315] | 81.5%
Cc1ccccc1S(=O)(=O)N(c1ccc(C(C)(C)C)cc1)C1CCNCC1 [CBK165074T] | 97.8%
CCCCCn1c(Cc2ccccc2)n[nH]c1=O [CBK013059] | 98.3%
CN(C)c1nc(NC2CC2)nc(Oc2ccc(=O)n(-c3ccccc3)n2)n1 [CBK270187] | 93.9%
O=C(CCc1ccco1)N1CCCC1c1nc2ccccc2[nH]1 (stereo not shown) [CBK283767] | 104%
CCNC(=O)C1(Cc2ccc(-c3ccncc3)cc2)CCN(C(=O)CC2CCCCC2)CC1 [CBK285785] | 89.8%
COc1cc(NC(=O)c2ccc(-c3cc4ccccc4oc3=O)cc2)ccc1NC(=O)C(C)C [CBK268601] | 103%
CNc1nc(N)nc(OCC(F)(F)F)n1 [CBK028082] | 89.4%
O=C(O)CC(NC(=O)OCc1ccccc1)c1ccccc1 (stereo not shown) [CBK265351] | 107%
CN1CCN(C(=O)c2ccc(NS(=O)(=O)c3cc(Cl)sc3Cl)cc2)CC1 [CBK034549] | 94%
Cc1nc2ccccc2n1CCNC(=O)c1ccccc1SCc1ccc(C#N)cc1 [CBK297082] | 106%
Cc1ccc(N2C(=O)N[C@@H]3CCN(S(=O)(=O)c4ccccc4)[C@@H]3C2=O)cc1 [CBK289285] | 107%
CCn1c(C)cc(C(=O)NC2CCN(c3ncccc3C#N)CC2)c1C [CBK306524] | 87.8%
Cc1nc(C)c(C(=O)c2coc3ccc(O)cc23)o1 [CBK027631] | 94.1%
CC(=O)N[C@H]1[C@H](Oc2ccc3ccccc3c2)O[C@@H]2COC(C)(C)O[C@H]2[C@@H]1O [CBK091644] | 87%
O=c1[nH]c(=O)c2cc(S(=O)(=O)NCc3ccccc3CN3CCCC3)ccc2[nH]1 [CBK286395] | 108%
O=C(O)CCSc1ccnc2ccccc12 [CBK122524C] | 93.2%
CCc1ccc(CC)c(S(=O)(=O)NC(CC(=O)O)c2ccccc2)c1 (stereo not shown) [CBK266208] | 102%
CC(=O)NCCn1nc(-c2ccccc2F)cc1CN(C)C [CBK283473] | 95.7%
CC(CN1CCCC1)NC(=O)c1ccc2c(c1)ncn2C (stereo not shown) [CBK281715] | 102%
CC(=O)NC(CC(=O)N1CCc2sccc2C1C)c1ccc(C)cc1 (stereo not shown) [CBK305378] | 89.2%

Structure (SMILES) | viability at 28.5 h, 10 µM
Cc1cc(NC(=O)CN(C)Cc2cnn(-c3ccccc3)c2)on1 [CBK305622] | 92.5%
C=CCNC(=O)Cn1cccc2cc(-c3ccc(OC)cc3)nc1-2 [CBK285348] | 92.4%
CCCNc1nccnc1-c1cc(C)c(O)c(C)c1 [CBK037210] | 87.6%
NC1CC(c2cc(NCc3cn4ccccc4n3)ncn2)C1 (stereo not shown) [CBK306631] | 112%
NCCCOc1cc(N2CCCC2)ncn1 [CBK115285] | 106%
CC(=O)Nc1ccc(OCC(O)Cn2ncc3ccccc3c2=O)cc1 (stereo not shown) [CBK305567] | 105%
Cc1ccc(CCNC(=O)c2snnc2C)cc1C [CBK282051] | 89.6%
Cc1ccccc1-n1nnnc1C(c1ccccc1)N(C)Cc1cccc([N+](=O)[O-])c1 (stereo not shown) [CBK262878] | 91%
COc1ccc(C)cc1NC(=O)CCN1CCN(CCO)CC1 [CBK264199] | 97.4%
CC(=O)c1sccc1NS(=O)(=O)c1ccc2ccccc2c1 [CBK200042] | 89.5%
CC1CCCN(CC(O)c2ccc3c(c2)CC(C)N3C(=O)C2CC2)C1 (stereo not shown) [CBK282125] | 99.2%
CC(=O)N1CCC2(C/C=C/C[C@H]3CN(CCO)CC[C@H]3NC(=O)CNC2=O)CC1 [CBK292139] | 92.8%
CCc1cc(=O)[nH]c(-c2ccc(N(C)CC(C)O)nc2)n1 (stereo not shown) [CBK306484] | 88.4%
CCCCCC1/C(=N\O)CCC1CC(=O)OC (stereo not shown) [CBK019978] | 93.9%
CC(C)(C)OC(=O)N1CCN(CCCOC2(C)SC(NC3CC4CCC3C4)=NC2=O)CC1 (stereo not shown) [CBK115612] | 95.9%
CS(=O)(=O)c1ccc(-c2ccc3c(c2)COC(C2CCN(C(=O)OCc4ccccc4)CC2)O3)cc1 (stereo not shown) [CBK144643] | 87.9%
CC(NC(=O)C1CC(=O)OC1(C)C)c1ccc2c(c1)CCCO2 (stereo not shown) [CBK281613] | 88.4%
COCCCn1c(=O)[nH]c2ncc(-c3ccco3)nc21 [CBK064449] | 99.2%
Cc1c(Cl)cccc1S(=O)(=O)Nc1cccc(C(=O)Nc2ccc(F)cc2)c1 [CBK038983] | 99.3%
COc1ccc(-c2nc3ccc(C)cc3c(C(=O)NCCc3ccc(S(N)(=O)=O)cc3)c2C)cc1 [CBK267753] | 123%
CN(C)C(=O)N1CCC2(CC1)CC(=O)N(Cc1ccc(S(C)(=O)=O)cc1)C2=O [CBK155957] | 104%

Structure (SMILES) | viability at 28.5 h, 10 µM
CC(C)N(C(=O)N1CCC2(CC1)CC(=O)c1ccccc1O2)C(C)C [CBK284010] | 90.7%
COc1cccc(Cc2c(C)nc3c(C(=O)NCCCN4CCCC4=O)cnn3c2C)c1 [CBK162055] | 111%
Cc1cc(C(C)(C)C)oc1C(=O)N1CCn2c(nnc2C2CC2)C1 [CBK283771] | 93.9%
Cc1cc(C(=O)NCCO)ccc1Br [CBK175092] | 92%
CN(C)CCOC(=O)c1ccc(S(=O)(=O)N(C)C)o1 [CBK264273C] | 100%
O=C(CC1CC1)Nc1snnc1-c1ccc(Cl)cc1 [CBK153239] | 97%
Cn1cc(CCNC(=O)N2CCCN(Cc3cccs3)CC2)cn1 [CBK305393] | 89.1%
Cc1ccc([C@]2(O)CC[C@H]3CN(Cc4cccc(F)c4F)C[C@H]32)nc1 [CBK283088] | 98.1%
CN(C)c1ccc(-c2nnc([C@H]3CCN(C(=O)c4ccccc4)C3)o2)cc1 [CBK289407] | 85.7%
O=C(NC1CCc2ccccc21)N1CCN(c2ccccc2)CC1 (stereo not shown) [CBK155208] | 92.2%
O=C1CC2(CCN(C(=O)C3CCCCC3)CC2)Oc2ccc(F)cc21 [CBK282863] | 74.6%
Cc1oc2ccc(O)cc2c1C(=O)N(C)CCOc1ccccc1 [CBK282696] | 111%
CC1CCCCN1C(=O)CN1C(=O)N2CCN=C2c2ccccc21 (stereo not shown) [CBK283921] | 102%
O=C(NC(C(=O)N/N=C/c1ccccc1O)c1n[nH]c(=O)c2ccccc12)c1ccccc1 (stereo not shown) [CBK261117] | 113%
CN1C(/C=N/O)=C(O)c2ccccc2S1(=O)=O [CBK010098] | 94.1%
COc1ccc(C(NC(=O)c2ccc(Cn3cncn3)cc2)c2ccccc2)cc1 (stereo not shown) [CBK285749] | 106%
CC(C)C(NC(=O)c1cccc(-n2cnnc2)c1)c1cccs1 (stereo not shown) [CBK282442] | 111%
COC(=O)c1c(NC(=O)CC2Nc3cccc4cccc(c34)NC2=O)sc(C)c1C (stereo not shown) [CBK267562] | 68.3%
Cc1ccc(OCC(=O)Nc2ncc(C(F)(F)F)cc2Cl)c(Br)c1 [CBK266426] | 95.1%
CCc1nn2c(=O)cc(CN3C(=O)NC(C)(c4ccco4)C3=O)nc2s1 (stereo not shown) [CBK305880] | 114%
COc1ccccc1/C=N/N=C(/Nc1ccc(C)cc1)c1nc2ccccc2s1 [CBK265051] | 124%

Same assay, conditions: human, hela cells, % viability, bulk resorufin, single well

Structure (SMILES) | viability at 28.5 h, 10 µM
C[C@@H]1[C@H]2Cc3ccc(O)cc3[C@]1(C)CCN2Cc1ccoc1 [CBK005262G] | 103%
